Converted amounts (≈) assume the structure as drawn. Square brackets hold non-standard residues; d marks the D form. Peptide text beside a SMILES is read from it. * marks the point of attachment. NMeR = CN[C@@H](CCCNC(=N)N)C(=O)O; Tridecanoyl = CCCCCCCCCCCCC(=O)*; Undecanoyl = CCCCCCCCCCC(=O)*; NMeK = CN[C@@H](CCCCN)C(=O)O; Nonanoyl = CCCCCCCCC(=O)*
What was measured:
[1] = system: Escherichia coli; test: Antibacterial activity against Escherichia coli; type: functional
[2] = system: Staphylococcus aureus; test: Antibacterial activity against Staphylococcus aureus; type: functional
[3] = Hemolytic activity in human RBC assessed as hemolysis; type: toxicity, cell-based, Erythrocyte; details: red blood cells
[4] = system: Escherichia coli; test: Antibacterial acitivity against Escherichia coli DH5a assessed as bacterial growth inhibition incubated for 24 hrs by broth micro-dilution method; type: functional
[5] = system: Mycolicibacterium smegmatis; test: Antimycobacterial activity against Mycobacterium smegmatis mc2 155 assessed as reduction in bacterial cell growth incubated for 24 hrs by resazurin dye based broth microdilution method; type: functional
[6] = Hemolytic activity against human Red blood cells assessed as cell lysis; type: toxicity, cell-based, Erythrocyte
[7] = system: Zymomonas mobilis; test: Antibacterial activity against Zymomonas mobilis ATCC 10988 assessed as reduction in bacterial growth incubated for 24 hrs by broth micro-dilution method; type: functional
[8] = system: Bacillus subtilis; test: Antimicrobial activity against Bacillus subtilis assessed as microbial growth inhibition incubated for 24 hrs by broth micro-dilution method; type: functional
[9] = system: Zymomonas mobilis; test: Antibacterial activity against Zymomonas mobilis ATCC 10988 assessed as bacterial growth inhibition; type: functional
[10] = system: Bacillus subtilis; test: Antibacterial activity against Bacillus subtilis assessed as bacterial growth inhibition; type: functional
[11] = system: Mycolicibacterium smegmatis; test: Antibacterial activity against Mycobacterium smegmatis mc2 155 assessed as bacterial growth inhibition; type: functional
[12] = system: Escherichia coli; test: Antibacterial activity against Escherichia coli DH5a assessed as bacterial growth inhibition; type: functional
[13] = Hemolytic activity in human erythrocytes measured after 1 hrs by microplate reader analysis; type: toxicity, cell-based, Erythrocyte
[14] = system: Pseudomonas aeruginosa; test: Antibacterial activity against Pseudomonas aeruginosa PAO1 assessed as bacterial growth inhibition; type: functional
[15] = system: Escherichia coli; test: Antibacterial activity against Escherichia coli ATCC 25922 assessed as reduction in bacterial cell growth measured for 18 hrs by Mueller-Hinton broth based two-fold serial dilution method; type: functional
[16] = system: Bacillus subtilis; test: Antibacterial activity against Bacillus subtilis ATCC 23857 assessed as reduction in bacterial cell growth measured for 18 hrs by Mueller-Hinton broth based two-fold serial dilution method; type: functional
[17] = Hemolytic activity in mouse erythrocyte incubated for 1 hr by microplate reader analysis; type: toxicity, cell-based; details: erythrocytes
[18] = system: Staphylococcus aureus; test: Antibacterial activity against Staphylococcus aureus ATCC 25923 assessed as reduction in bacterial cell growth measured for 18 hrs by Mueller-Hinton broth based two-fold serial dilution method; type: functional
[19] = system: Pseudomonas aeruginosa; test: Antibacterial activity against Pseudomonas aeruginosa ATCC 27853 assessed as reduction in bacterial cell growth measured for 18 hrs by Mueller-Hinton broth based two-fold serial dilution method; type: functional
[20] = Hemolytic activity in mouse Red blood cells incubated for 1 hr by microplate reader assay; type: toxicity, cell-based, Erythrocyte; details: red blood cells
[21] = system: Klebsiella pneumoniae; test: Antibacterial activity against Klebsiella pneumoniae ATCC 700603 assessed as reduction in bacterial cell growth measured for 18 hrs by Mueller-Hinton broth based two-fold serial dilution method; type: functional

Row | Compound | MIC [1] | MIC [2] | MIC [15] | MIC [16] | HC50 at 1 h [17] | MIC [18] | MIC [19] | HC50 at 1 h [20] | MIC [21] | further results
1 | CC[C@H](C)[C@H](NC(=O)[C@H](CCCNC(=N)N)NC(=O)[C@H](CCCCN)NC(=O)[C@H](CC(C)C)NC(=O)[C@H](CC(C)C)NC(=O)[C@@H](N)CCCCN)C(=O)N[C@@H](CCCCN)C(=O)N[C@@H](CCCCN)C(=O)N[C@@H](CC(C)C)C(=O)N[C@@H](CC(C)C)C(N)=O (H-KLLKRIKKLL-NH2) | 29.6 µM (≈ 37.1 µg/mL) | 22.4 µM (≈ 28 µg/mL) |  |  |  |  |  |  |  | HC50 [3]: 193 µM
2 | CC[C@H](C)[C@H](NC(=O)[C@H](CCCNC(=N)N)NC(=O)[C@H](CCCCN)NC(=O)[C@H](CC(C)C)NC(=O)[C@H](CC(C)C)NC(=O)[C@@H](N)CCCCN)C(=O)N[C@@H](CCCCN)C(=O)N[C@H](C(=O)N[C@@H](CC(C)C)C(=O)N[C@@H](CC(C)C)C(N)=O)[C@@H](C)O (H-KLLKRIKTLL-NH2) | 19.6 µM (≈ 24 µg/mL) | > 19.6 µM |  |  |  |  |  |  |  | HC50 [3]: 29.3 µM
3 | CC[C@H](C)[C@H](NC(=O)[C@@H](NC(=O)[C@H](CCCCN)NC(=O)[C@H](CC(C)C)NC(=O)[C@H](CC(C)C)NC(=O)[C@@H](N)CCCCN)C(C)C)C(=O)N[C@@H](CCCCN)C(=O)N[C@@H](CCCCN)C(=O)N[C@@H](CC(C)C)C(=O)N[C@@H](CC(C)C)C(N)=O (H-KLLKVIKKLL-NH2) | 5 µM (≈ 5.97 µg/mL) | 7.5 µM (≈ 8.96 µg/mL) |  |  |  |  |  |  |  | 
4 | CC[C@H](C)[C@H](NC(=O)[C@H](Cc1ccccc1)NC(=O)[C@H](CCCCN)NC(=O)[C@H](CC(C)C)NC(=O)[C@H](CC(C)C)NC(=O)[C@@H](N)CCCNC(=N)N)C(=O)N[C@@H](CCCCN)C(=O)N[C@@H](CCCCN)C(=O)N[C@@H](CC(C)C)C(=O)N[C@@H](CC(C)C)C(N)=O (H-RLLKFIKKLL-NH2) |  |  |  |  |  |  |  |  |  | MIC [4]: 315 µM (≈ 400 µg/mL); MIC [5]: 15.8 µM (≈ 20.1 µg/mL); HC50 [6]: > 394 µM; MIC [7]: 7.9 µM (≈ 10 µg/mL); MIC [8]: 31.5 µM (≈ 40 µg/mL)
5 | CCCCCCCCC(=O)NCC(=O)N[C@@H](CC(C)C)C(=O)N[C@@H](CCCCN)C(=O)N[C@@H](CCCCN)C(=O)N[C@H](C(=O)N[C@H](C(=O)N[C@@H](CCCCN)C(=O)N[C@@H](CCCCN)C(=O)N[C@@H](CC(C)C)C(=O)N[C@@H](CC(C)C)C(N)=O)[C@@H](C)CC)[C@@H](C)CC (Nonanoyl-GLKKIIKKLL-NH2) |  |  |  |  |  |  |  |  |  | MIC [9]: 11.5 µM (≈ 14.8 µg/mL); MIC [10]: 3.83 µM (≈ 4.95 µg/mL); MIC [11]: 2.3 µM (≈ 2.97 µg/mL); MIC [12]: 76.6 µM (≈ 99 µg/mL); HC50 at 1 h [13]: 61.9 µM; MIC [14]: 11.5 µM (≈ 14.8 µg/mL)
6 | CCCCCCCCC(=O)NCC(=O)N[C@@H](CC(C)C)C(=O)N[C@@H](CC(C)C)C(=O)N[C@@H](CCCCN)C(=O)N[C@H](C(=O)N[C@H](C(=O)N[C@@H](CCCCN)C(=O)N[C@@H](CCCCN)C(=O)N[C@@H](CC(C)C)C(=O)N[C@@H](CC(C)C)C(N)=O)[C@@H](C)CC)[C@@H](C)CC (Nonanoyl-GLLKIIKKLL-NH2) |  |  |  |  |  |  |  |  |  | MIC [9]: 7.75 µM (≈ 9.9 µg/mL); MIC [10]: 5.43 µM (≈ 6.94 µg/mL); MIC [11]: 15.5 µM (≈ 19.8 µg/mL); MIC [12]: > 155 µM; HC50 at 1 h [13]: > 155 µM; MIC [14]: 23.3 µM (≈ 29.7 µg/mL)
7 | CCCCCCCCCCCCC(=O)NCC(=O)N[C@@H](CC(C)C)C(=O)N[C@@H](CC(C)C)C(=O)N[C@@H](CCCCN)C(=O)N(C)[C@@H](CCCNC(=N)N)C(=O)N[C@H](C(=O)N(C)[C@@H](CCCCN)C(=O)N[C@H](C(=O)N[C@@H](CC(C)C)C(=O)N[C@@H](CC(C)C)C(N)=O)[C@@H](C)O)[C@@H](C)CC (Tridecanoyl-GLLK[NMeR]I[NMeK]TLL-NH2) |  |  | 8 µM (≈ 11 µg/mL) | 4 µM (≈ 5.51 µg/mL) | 64 µM | 8 µM (≈ 11 µg/mL) | 8 µM (≈ 11 µg/mL) | 64 µM | 32 µM (≈ 44.1 µg/mL) | 
8 | CCCCCCCCCCCCC(=O)NCC(=O)N[C@@H](CC(C)C)C(=O)N[C@@H](CC(C)C)C(=O)N(C)[C@@H](CCCCN)C(=O)N[C@@H](CCCNC(=N)N)C(=O)N[C@H](C(=O)N(C)[C@@H](CCCCN)C(=O)N[C@H](C(=O)N[C@@H](CC(C)C)C(=O)N[C@@H](CC(C)C)C(N)=O)[C@@H](C)O)[C@@H](C)CC (Tridecanoyl-GLL[NMeK]RI[NMeK]TLL-NH2) |  |  | 16 µM (≈ 22 µg/mL) | 4 µM (≈ 5.51 µg/mL) | 64 µM | 8 µM (≈ 11 µg/mL) | 8 µM (≈ 11 µg/mL) | 64 µM | 64 µM (≈ 88.2 µg/mL) | 
9 | CCCCCCCCCCC(=O)NCC(=O)N[C@@H](CC(C)C)C(=O)N[C@@H](CC(C)C)C(=O)N[C@@H](CCCCN)C(=O)N(C)[C@@H](CCCNC(=N)N)C(=O)N[C@H](C(=O)N(C)[C@@H](CCCCN)C(=O)N[C@H](C(=O)N[C@@H](CC(C)C)C(=O)N[C@@H](CC(C)C)C(N)=O)[C@@H](C)O)[C@@H](C)CC (Undecanoyl-GLLK[NMeR]I[NMeK]TLL-NH2) |  |  | 16 µM (≈ 21.6 µg/mL) | 8 µM (≈ 10.8 µg/mL) | > 256 µM | 32 µM (≈ 43.2 µg/mL) | 8 µM (≈ 10.8 µg/mL) | > 256 µM | 128 µM (≈ 173 µg/mL) | 
10 | CCCCCCCCCCC(=O)NCC(=O)N[C@@H](CC(C)C)C(=O)N[C@@H](CC(C)C)C(=O)N(C)[C@@H](CCCCN)C(=O)N[C@@H](CCCNC(=N)N)C(=O)N[C@H](C(=O)N(C)[C@@H](CCCCN)C(=O)N[C@H](C(=O)N[C@@H](CC(C)C)C(=O)N[C@@H](CC(C)C)C(N)=O)[C@@H](C)O)[C@@H](C)CC (Undecanoyl-GLL[NMeK]RI[NMeK]TLL-NH2) |  |  | 32 µM (≈ 43.2 µg/mL) | 4 µM (≈ 5.4 µg/mL) | > 256 µM | 32 µM (≈ 43.2 µg/mL) | 8 µM (≈ 10.8 µg/mL) | > 256 µM | > 128 µM | 

From ChEMBL document CHEMBL5608163, “Structure modification of anoplin for fighting resistant bacteria” (Eur J Med Chem, 2024)
